Here are results for 2 molecules from patent US20150315218A1, “SALTS OF PRODRUGS OF PIPERAZINE AND SUBSTITUTED PIPERIDINE ANTIVIRAL AGENTS” (Bristol-Myers Squibb Company, priority 2004, published 2015).

Where a name gives a salt, the structure may show the parent alone.

Data set [1] is described as follows: IV and PO pharmacokinetic studies of prodrug salts (Iab, Ibb, Icb) in the dog, with historical parent data. The data set is classed as in vivo, beagle dogs. Particulars: for AUC: read-out: AUCtot; for Cmax: read-out: Cmax; for concentration at 24 hr: read-out: C-24 hr. The procedure: The IV and PO studies of Iab were conducted in a crossover fashion in three male beagle dogs (11±1.1 kg, Marshall Farms USA Inc., North Rose, N.Y.). There was a two-week washout period between the IV and PO studies.
In the IV study, Iab was infused via the cephalic vein at 1.2 mg/kg (free acid, or 0.95 mg/kg of IVa equivalent) over 5 min at a constant rate of 0.1 mL/kg/min. The concentration of the dosing solution was 2.4 mg/mL, and the dosing volume was 0.5 mL/kg. Serial blood samples were collected from the femoral artery before dosing and at 5, 10, 15, 30, 45 min, 1, 2, 4, 6, 8 and 24 hr after dosing.
In the PO study, the dogs were fasted overnight before dosing. Iab was administered by oral gavage at 6.6 mg/kg (free acid, or 5.2 mg/kg of IVa equivalent). The concentration of the dosing solution was 13.2 mg/mL, and the dosing volume was 0.5 mL/kg. Serial blood samples were collected before dosing and at 15, 30, 45 min, 1, 2, 4, 6, 8 and 24 hr after dosing.
The IV and PO studies of Ibb were conducted in male beagle dogs (10±0.78 kg, Marshall Farms USA Inc., North Rose, N.Y.). Three dogs were used in each study. Of the three dogs, two same dogs were used for both IV and PO studies. There was a two-week washout period between the IV and PO studies.
The concentration of the dosing solution was 2.6 mg/mL, and the dosing volume was 0.5 mL/kg. Serial blood samples were collected from the femoral artery before dosing and at 5, 10, 15, 30, 45 min, 1, 2, 4, 6, 8 and 24 hr after dosing.
In the PO study, the dogs were fasted overnight before dosing. […] The concentration of the dosing solution was 7.0 mg/mL, and the dosing volume was 1 mL/kg. Serial blood samples were collected before dosing and at 15, 30, 45 min, 1, 2, 4, 6, 8 and 24 hr after dosing.
The IV and PO studies of Icb were conducted in a crossover fashion in three male beagle dogs (12±2.8 kg, Marshall Farms USA Inc., North Rose, N.Y.). There was a two-week washout period between the IV and PO studies.
In the IV study, Icb was infused via the cephalic vein at 1.3 mg/kg (free acid, or 1.0 mg/kg of IVe equivalent) over 5 min at a constant rate of 0.1 mL/kg/min. The concentration of the dosing solution was 2.6 mg/mL, and the dosing volume was 0.5 mL/kg. Serial blood samples were collected from the femoral artery before dosing and at 5, 10, 15, 30, 45 min, 1, 2, 4, 6, 8 and 24 hr after dosing.
In the PO study, the dogs were fasted overnight before dosing. […] The concentration of the dosing solution was 12 mg/mL, and the dosing volume was 0.5 mL/kg. Serial blood samples were collected before dosing and at 15, 30, 45 min, 1, 2, 4, 6, 8 and 24 hr after dosing.

Data set [2] in a line: IV and PO pharmacokinetic studies of prodrug salts (Iab, Ibb, Icb) in the monkey, with historical parent data. Format: in vivo, cynomolgus monkeys. Particulars: for AUC: read-out: AUCtot; for concentration at 24 hr: read-out: C-24 hr; for Cmax: read-out: Cmax. The procedure: The IV and PO studies of Iab were conducted in a crossover fashion in three male cynomolgus monkeys (11±1.2 kg, Charles River Biomedical Research Foundation, Houston, Tex.). There was a two-week washout period between the IV and PO studies.
In the IV study, Iab was infused via the femoral vein at 1.3 mg/kg (free acid, or 1.1 mg/kg of IVa equivalent) over 5 min at a constant rate of 0.1 mL/kg/min. The concentration of the dosing solution was 2.6 mg/mL, and the dosing volume was 0.5 mL/kg. Serial blood samples were collected from the femoral artery before dosing and at 5, 10, 15, 30, 45 min, 1, 2, 4, 6, 8 and 24 hr after dosing.
In the PO study, the monkeys were fasted overnight before dosing. Iab was administered by oral gavage at 7.1 mg/kg (free acid, or 5.6 mg/kg of IVa equivalent). The concentration of the dosing solution was 14.2 mg/mL, and the dosing volume was 0.5 mL/kg. Serial blood samples were collected before dosing and at 15, 30, 45 min, 1, 2, 4, 6, 8 and 24 hr after dosing.
The IV and PO studies of Ibb were conducted in a crossover fashion in three male cynomolgus monkeys (9.9±2.4 kg, Charles River Biomedical Research Foundation, Houston, Tex.). There was a two-week washout period between the IV and PO studies.
The concentration of the dosing solution was 2.7 mg/mL, and the dosing volume was 0.5 mL/kg. Serial blood samples were collected from the femoral artery before dosing and at 5, 10, 15, 30, 45 min, 1, 2, 4, 6, 8 and 24 hr after dosing.
In the PO study, the monkeys were fasted overnight before dosing. […] The concentration of the dosing solution was 5.8 mg/mL, and the dosing volume was 1 mL/kg. Serial blood samples were collected before dosing and at 15, 30, 45 min, 1, 2, 4, 6, 8 and 24 hr after dosing.
The IV and PO studies of Icb were conducted in a crossover fashion in three male cynomolgus monkeys (10±1.6 kg, Charles River Biomedical Research Foundation, Houston, Tex.). There was a two-week washout period between the IV and PO studies.
The concentration of the dosing solution was 2.8 mg/mL, and the dosing volume was 0.5 mL/kg. Serial blood samples were collected from the femoral artery before dosing and at 5, 10, 15, 30, 45 min, 1, 2, 4, 6, 8 and 24 hr after dosing.
In the PO study, the monkeys were fasted overnight before dosing. […] The concentration of the dosing solution was 9.8 mg/mL, and the dosing volume was 0.5 mL/kg. Serial blood samples were collected before dosing and at 15, 30, 45 min, 1, 2, 4, 6, 8 and 24 hr after dosing.

Where [3] appears, read: male, beagle, plasma, po, 7 mg/kg.
[4] abbreviates: male, beagle, plasma, po, 6.05 mg/kg.
Setting [5] is: cynomolgus monkey, plasma, po, 5 mg/kg.
Where [6] appears, read: male, cynomolgus monkey, plasma, po, 4.9 mg/kg.

For `O=C(C(=O)N1CCN(C(=O)c2ccccc2)CC1)c1cn(COP(=O)(O)O)c2c(-n3ccnn3)ncc(F)c12` [Ibb, [3-[(4-benzoylpiperazin-1-yl)(oxo)acetyl]-4-fluoro-7-(1H-1,2,3-triazol-1-yl)-1H-pyrrolo[2,3-c]pyridin-1-yl]methyl dihydrogen phosphate, L-lysine salt (1:1)], the T1/2 in data set [1] (IV Ibb […] free acid (1.0 of IVb eqv.), mean ± SD, n = 3) was 49.8 ± 34.8 min. Moreover, the prodrug detected in plasma after oral administration was 0.034 µM in data set [1] (LLQ = 5 nM) and “not detected” in data set [2] (monkey, LLQ = 5 nM). The half-life in data set [1] (male, beagle, plasma, after IV prodrug, analyte = label, read-out: t1/2 (hr), IV (converted)) was 0.83 h; in data set [2] (male, cynomolgus monkey, plasma, monkey, after IV prodrug, analyte = label, read-out: t1/2 (hr), IV (converted)), 0.1 h. The AUC in data set [1] (setting [3]) amounted to 0.059 µM·h. In addition, in data set [1] (setting [3]), the Cmax (usually the maximum level reached in the sampled fluid or tissue) amounted to 34 ± 18 nM. In addition, in data set [1] (male, beagle, plasma, po, 7 mg/kg, read-out: Tmax), the Tmax (usually the time from dosing to the highest level) was determined as 0.33 ± 0.14 h. Moreover, the clearance in data set [1] (male, beagle, plasma, prodrug after IV administration, read-out: CLtot (mL/min/kg), IV) amounted to 27 mL/min/kg; in data set [2] (male, cynomolgus monkey, plasma, monkey, prodrug after IV administration, read-out: CLtot (mL/min/kg), IV) it was 28 mL/min/kg. In addition, the Vd in data set [1] (male, beagle, plasma, prodrug after IV administration, read-out: Vdss (L/kg), IV) was 0.35 L/kg; in data set [2] (male, cynomolgus monkey, plasma, monkey, prodrug after IV administration, read-out: Vdss (L/kg), IV), 0.15 L/kg.

On to `COc1cnc(-n2cnc(C)n2)c2[nH]cc(C(=O)C(=O)N3CCN(C(=O)c4ccccc4)CC3)c12` [IVc], for which the bioavailability in data set [1] (beagle, plasma, historical parent, PO 5 mg/kg, read-out: Bioavailability (%)) was determined as 89%; in data set [1] (male, beagle, plasma, oral prodrug, read-out: Bioavailability (%) of parent from prodrug), 104%; in data set [1] (male, beagle, plasma, oral, 6.05 mg/kg, read-out: Bioavailability) it was 104%; in data set [1] (plasma, po, 5 mg/kg, read-out: Bioavailability), 89 ± 12%; in data set [2] (cynomolgus monkey, plasma, monkey, historical parent, PO 5 mg/kg, read-out: Bioavailability (%)), 64%; in data set [2] (male, cynomolgus monkey, plasma, oral, 4.9 mg/kg, read-out: Bioavailability) it was 122%. Moreover, in data set [2] (male, cynomolgus monkey, plasma, monkey, oral prodrug, read-out: Bioavailability (%) of parent from prodrug), the bioavailability turned out to be 122%. For the same molecule, the time of peak concentration (Tmax) in data set [1] (beagle, plasma, historical parent, PO 5 mg/kg, read-out: Tmax (hr), PO) worked out at 1.3 h; in data set [1] (male, beagle, plasma, parent after oral prodrug (~5 mg/kg parent equivalent), read-out: Tmax (hr), PO), 0.58 h; in data set [1] (male, beagle, plasma, po, 6.05 mg/kg, read-out: Tmax) it was 0.58 ± 0.38 h; in data set [1] (plasma, po, 5 mg/kg, read-out: Tmax) it was 1.3 ± 0.58 h; in data set [2] (cynomolgus monkey, plasma, monkey, historical parent, PO 5 mg/kg, read-out: Tmax (hr), PO) it was 2.3 h; in data set [2] (male, cynomolgus monkey, plasma, po, 4.9 mg/kg, read-out: Tmax) it was 0.92 ± 0.14 h. Also, the Tmax was determined as 0.92 h in data set [2] (male, cynomolgus monkey, plasma, monkey, parent after oral prodrug (~4-6 mg/kg parent equivalent), read-out: Tmax (hr), PO) and 2.3 ± 1.5 h in data set [2] (monkey, PO IVc 5 mg/kg, historical IVc). The AUC in data set [1] (male, beagle, plasma, iv, 1.28 mg/kg) worked out at 9.8 ± 3.6 µM·h; in data set [1] (setting [4]), 72 ± 27 µM·h; in data set [1] (plasma, iv, 1 mg/kg) it was 14 ± 2.5 µM·h; in data set [1] (plasma, po, 5 mg/kg) it was 63 ± 2.4 µM·h; in data set [2] (cynomolgus monkey, plasma, iv, 1 mg/kg) it was 5 ± 1 µM·h; in data set [2] (setting [5]), 14 ± 4 µM·h. Also, the AUC in data set [2] (setting [6]) came out at 24 ± 4.6 µM·h. For the same molecule, the concentration at 24 hr was 220 ± 160 nM in data set [1] (male, beagle, plasma, oral, 6.05 mg/kg); 150 ± 27 nM in data set [1] (plasma, oral, 5 mg/kg); 17 ± 11 nM in data set [2] (cynomolgus monkey, plasma, oral, 5 mg/kg); 7 ± 2 nM in data set [2] (male, cynomolgus monkey, plasma, oral, 4.9 mg/kg). Also, the peak concentration (Cmax) was determined as 16000 ± 3900 nM in data set [1] (setting [4]); 9600 ± 870 nM in data set [1] (plasma, po, 5 mg/kg); 4200 ± 2600 nM in data set [2] (setting [5]); 9500 ± 1200 nM in data set [2] (setting [6]). Moreover, the mean residence time (MRT) (in general, a mean duration of stay, worked out from the concentration-time curve) in data set [1] (plasma, iv, 1 mg/kg, read-out: MRT) was determined as 378 ± 114 min; in data set [2] (cynomolgus monkey, plasma, iv, 1 mg/kg, read-out: MRT) it was 52.2 ± 5.1 min. In addition, the Vd is 0.93 ± 0.14 L/kg in data set [1] (plasma, iv, 1 mg/kg, read-out: Vdss) and 0.4 ± 0.097 L/kg in data set [2] (cynomolgus monkey, plasma, iv, 1 mg/kg, read-out: Vdss).
